# Assay results taken from patent US6991812B2, “Agent for preventing, improving or treating hypertension” (Kao Corporation, priority 2000, dated 2006).
# Test system: male spontaneous hypertensive rats (SHR)
# Assay: Immediate effect on blood pressure in SHR, 1 hour after oral administration, tail artery systolic blood pressure
# Format: in vivo, rat
# Conditions: Example 6, organic acid, SHR aged 15 weeks, mean ± standard error
# Experimental: The blood pressure of each of male spontaneous hypertensive rats (SHR) was preliminarily continuously measured for 7 days by means of a commercially available non-invasive sphygmomanometer (manufactured by Softlon Co.), thereby fully accustoming the rats to the sphygmomanometry, and an evaluation test was then started. All the rats were bred (in a breeding chamber in a rat zone) under conditions of a temperature of 25±1° C., a relative humidity of 55±10% and a lighting time of 12 hours (from 7 a.m. to 7 p.m.).
# The thus-obtained test results were expressed by a mean and standard error to conduct a Student's t-test. A level of significance was defined as at most 5%.
# Six rats aged 15 weeks at the time the administration test was started were used in each group. The systolic blood pressure of a tail artery of each rat was measured after 1 hour from the beginning of the administration.
# In Control Group, water was orally administered. In Comparative Group 1, a 0.2% aqueous solution of ferulic acid was orally administered. […]
# Six rats aged 15 weeks at the time the administration test was started were used in each group. The systolic blood pressure of a tail artery of each rat was measured after 1 hour from the beginning of oral administration. […]
# In Control Group, a 1% aqueous solution of sugar was orally administered. […] The dose was determined to be 15 mL/kg.
smiles,measurement,setting,value
"COc1cc(/C=C/C(=O)O)ccc1O [Comp. Group 2, ferulic acid]","Systolic blood pressures, Before administration","n=6, baseline",208.0 ± 4.1 mmHg
same,"Systolic blood pressures, After 1 hour from administration","n=6, oral aqueous solution",179.7 ± 4.4 mmHg
